Tests used:
mNG::RAD51 promastigotes = experiment: mNG::RAD51 nuclear foci studies; type: cell-based, Leishmania (L.) mexicana; conditions: 50 μM, up to 24 h
Source text: DSBs often lead to cytotoxicity, which could be an explanation for the observed compound activity.[44]−[46]Leishmania employ the RAD51 DNA recombinase protein as part of its DNA repair machinery to fix naturally occurring nuclear DSBs via homologous recombination.[47]−[50] Using a CRISPR/Cas9 gene editing strategy,[51] we generated a genetically modified cell line with mNeonGreen tagged RAD51. This would allow observation of fluorescent RAD51 protein recruitment to foci in the nucleus corresponding to DSB accumulation, as has been shown in T. brucei.[52],[53] Phleomycin was used as a positive control to induce DSBs,[54] which led to the expected observation of accumulation of RAD51 as green dots in the nucleus in 80% of cells from as early as 2 h posttreatment (Figure 2D). […] We can therefore conclude that the BI compounds tested are unlikely to act via DSBs (albeit this methodology is sensitive only to DSBs in nuclear DNA), and another mechanism of cell cycle disruption is responsible for the breakdown in the healthy cell cycle.
(§1) NCTC cells (6 × 10^4/well) were added to a 96-well plate. Treatments of the cells with selected compounds (serially diluted 1.5 to 200 μM) was performed in a humidified incubator for 96 h at 37 °C and with 5% CO2.
(§2) The MTT colorimetric method was used to determine the 50% cytotoxic concentration (CC50) and the selectivity index (CC50 against NCTC cells/IC50 against amastigotes).15 […]
(§3) […] […] Statistical significance was derived from a two-tailed T-test.
(§4) The Graph Pad Prism 5 software was used to perform sigmoid dose-response curves for the determination of […]
(§5) […] At 6 h and 24 h post-treatment, a 1 mL aliquot was taken for imaging. The cell cycle experiment was preformed twice independently.
(§6) Generation of mNG::RAD51 tagged cell line
(§7) The single-stranded DNA-binding protein RAD51, associated with DNA Repair, LmxM.28.0550 was tagged with endogenous fluorescent protein mNeonGreen (mNG) at the N-terminus. […]
Primers for constructs and sgRNA were designed using LeishGEdit (http://www.leishGEdit.net). […]

[1] = Mammalian toxicity, MTT colorimetric; type: cell-based, murine; conditions: mouse
Description: Table 1 depicts the antileishmanial (L. infantum) activity evaluation performed against both the amastigote form (evaluated microscopically using an ex vivo intracellular model of mice macrophages) and the promastigote one (using an MTT colorimetric method).[32],[33] The cytotoxicity was evaluated against NCTC cells using an MTT colorimetric method and the selectivity index was determined using the ratio between the CC50 values (NCTC cells) and the IC50 values (amastigotes).[32] […] With respect to the substituents on the C ring, larger, hydrophobic groups conferred greater bioactivity (e.g., 9b–d), whereas small, hydrophilic groups such as a hydroxyl group afford modest to poor bioactivity. […]
Murine conjunctive fibroblasts NCTC clone 929 (ATCC) were maintained in 10% foetal calf serum supplemented RPMI-1640 medium (pH 7.2) at 37 °C in a humidified incubator with 5% CO2. […]
Biological activity assays […]
as §1, §2, §5, §6, §7
Primers for constructs and sgRNA were designed using LeishGEdit (http://www.leishGEdit.net).
PCR was at 94 °C for 5 min, followed by 35 cycles at 94 °C (15 sec), 65 °C (15 sec), 72 °C (2 min) then finally 72 °C (1 min).
PCR was at 94 °C for 30 sec, followed by 30 cycles at 94 °C (30 sec), 60 °C (30 sec), 72 °C (30 sec) then finally 72 °C (2 min). […] Combined PCR products were precipitated for 20 min with 10 μL 3M sodium acetate and 300 μL EtOH, pelleted at 14000 min-1 30 min, washed once with 70% EtOH, re-pelleted and resuspended in […]
Promastigotes (1 × 10^7 cells) were combined with PCR products and transfected using the Amaxa Nucleofector II.17 Electroporation was performed using 2 mm cuvettes on the X-100 program, followed by immediate suspension in pre-warmed M199 medium. Successful transfectants were selected with 20 μg mL-1 Puromycin 15 h after transfection, taking 4 days to reach stable growth in culture. mNG::RAD51 nuclear foci studies mNG::RAD51 promastigotes (5 × 10^6 cells mL-1) in 7 mL of M199 medium were treated with 7 μL o f compound (S)-9a or (S)-9b dissolved in DMSO giving a final concentration of 50 μM. Phleomycin was used as a positive control at a final concentration of 25 μg mL-1. At T = 0, 15, 30, 60 min, and 2, 6, 24 h post-treatment a 0.8 mL aliquot was taken for imaging.

[2] = system: L. mexicana promastigotes; experiment: Cell cycle studies (K/N counts); type: cell-based, Leishmania (L.) mexicana; conditions: 50 μM, 6 and 24 h
Description: To investigate whether the morphological changes are a consequence of cell cycle interference, we analyzed the cell cycle over a 24 h period. Untreated L. mexicana promastigotes typically have a doubling time of 7.1 h, with each of the DNA-containing organelles replicating once in the order […], before cytokinesis, leading to two daughter cells.[37],[38] […] Cells treated with (S)-9a at 50 μM were studied after 6 and 24 h of treatment, and found to deviate from the typical cell cycle, giving rise to abnormal categories of cells with incorrectly replicated organelles (Figure 2C). For around 15% of the cells in 1K1N there was the presence of an eXtra structure (1K1N1X) that could not be clearly assigned as K or N, generally toward the posterior end of the cell body.
as §1, §2, §3, §4

Structure (SMILES) | RAD51 nuclear foci (mNG::RAD51 promastigotes) | CC50 at 96 h [1] | cells in 1K1N with an extra structure (1K1N1X) [2] | proportion of cells in the dividing stages (Non-1K1N) ([2]; versus the expected 10%)
COc1cc2c(cc1OC)[C@H](Cc1ccc(Br)cc1)N(C)CC2 [(S)-9a] | no RAD51 nuclear foci | 42.5 ± 1.5 µM | around 15% | doubled
COc1cc2c(cc1OC)[C@H](Cc1ccc(OC)c(OCc3ccccc3)c1)N(C)CC2 [(S)-9b] | no RAD51 nuclear foci | 47.1 ± 11.2 µM |  | 
COc1cc2c(cc1OC)[C@@H](Cc1ccc(Oc3cc(C[C@H]4c5cc(OC)c(OC)cc5CCN4C)ccc3OC)cc1)N(C)CC2 [(S,R)-11, (−)-O,O′-dimethylgrisabine] |  | 10.2 ± 1.4 µM |  | 
